Measurements reported in ChEMBL document CHEMBL1201862, “PubChem BioAssay data set” (2004).
Activity calls are given as the source filed them.

Assays:
[1] = target: T1, Rac GTPase-activating protein 1 (Homo sapiens, UniProt Q9H0H5); assay: MgcRacGAP GTPase-activating activity inhibitors, confirmation, biochemical, ADP Hunter fluorescence, primary and confirmatory (AID 624330); assay type: functional
T1 sequence (Q9H0H5 whole entry): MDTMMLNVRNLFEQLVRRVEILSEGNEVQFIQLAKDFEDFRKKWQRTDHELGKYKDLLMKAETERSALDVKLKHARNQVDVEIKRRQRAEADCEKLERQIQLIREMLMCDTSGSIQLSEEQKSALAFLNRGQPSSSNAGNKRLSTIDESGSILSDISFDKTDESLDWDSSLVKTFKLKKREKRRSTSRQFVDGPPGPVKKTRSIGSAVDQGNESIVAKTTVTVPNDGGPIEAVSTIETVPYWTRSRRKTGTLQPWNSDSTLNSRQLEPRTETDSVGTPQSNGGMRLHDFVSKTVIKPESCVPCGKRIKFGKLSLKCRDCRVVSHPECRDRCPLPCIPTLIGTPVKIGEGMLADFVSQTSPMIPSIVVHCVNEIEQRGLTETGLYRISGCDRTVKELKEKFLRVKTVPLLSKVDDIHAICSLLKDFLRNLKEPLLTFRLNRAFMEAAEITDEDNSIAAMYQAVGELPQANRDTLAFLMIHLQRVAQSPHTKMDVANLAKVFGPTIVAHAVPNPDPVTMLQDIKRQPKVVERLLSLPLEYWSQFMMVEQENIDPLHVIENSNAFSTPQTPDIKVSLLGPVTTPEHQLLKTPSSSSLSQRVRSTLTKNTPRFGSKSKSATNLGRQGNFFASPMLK

[2] = Luminescent dose response cell-based high throughput screening assay for inhibitors of the Janus kinase 2 mutant JAK2V617F. [Related pubchem assays: 1446 (Primary screen.), 1521 (Confirmation assay.), 1486 (Counter screen.)]; assay type: functional
[3] = THP-1 cell cytotoxicity, dose response, cytotoxicity control for Vif-APOBEC3G degradation inhibitor project, THP-1 cells (AID 1117359); assay type: functional; conditions: Human immunodeficiency virus 1, THP-1
[4] = target: Ephrin type-A receptor 4 (Mus musculus, UniProt Q03137); assay: inhibitors of EphA4 binding to KYL peptide, primary screen, biochemical, colorimetric, mouse EphA4 (AID 689); assay type: functional
[5] = target: T2, Cytochrome P450 1A2 (Homo sapiens, UniProt P05177);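 also: PubChem cytochrome P450 panel assay, CYP1A2 panel member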
T2 sequence (P05177 whole entry): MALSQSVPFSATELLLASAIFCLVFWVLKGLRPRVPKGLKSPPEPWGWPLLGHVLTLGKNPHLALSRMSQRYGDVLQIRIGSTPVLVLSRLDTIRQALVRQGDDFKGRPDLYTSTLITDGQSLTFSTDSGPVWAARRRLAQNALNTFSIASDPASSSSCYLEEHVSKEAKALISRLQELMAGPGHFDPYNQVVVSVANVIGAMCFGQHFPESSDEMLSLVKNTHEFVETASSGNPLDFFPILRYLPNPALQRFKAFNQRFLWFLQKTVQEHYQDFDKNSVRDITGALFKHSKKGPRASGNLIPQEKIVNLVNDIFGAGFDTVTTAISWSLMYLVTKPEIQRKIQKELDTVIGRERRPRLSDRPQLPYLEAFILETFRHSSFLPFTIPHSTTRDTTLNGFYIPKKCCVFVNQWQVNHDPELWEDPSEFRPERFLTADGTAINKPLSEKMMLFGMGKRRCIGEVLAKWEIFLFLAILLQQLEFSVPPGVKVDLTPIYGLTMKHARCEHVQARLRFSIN

[6] = cytotoxicity toward DRD oncogenic fibroblasts, dose response, cell-based, non-viral oncogenic, luminescence (AID 1934); assay type: functional; conditions: Homo sapiens
[7] = test system: BJ; assay: cytotoxicity toward BJ-TERT-LT-ST fibroblasts, dose response, cell-based, RAS-independent, luminescence (AID 1935); assay type: functional; conditions: Homo sapiens;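 also: BJ fibroblasts immortalized with TERT plus LT and ST oncogenes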
[8] = target: Paired box protein Pax-8 (Homo sapiens, UniProt Q06710); assay: inhibitors of PAX8-driven TPO luciferase reporter, dose response, RMG-I cells, cherry-pick (AID 687027); assay type: functional, cell-based;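 also: luciferase reporter driven by Pax8 target thyroperoxidase promoter measured by SteadyGlo luminescence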
[9] = target: T3, Protein RecA (Mycobacterium tuberculosis, UniProt P9WHJ3); assay: Fluorescence Cell-Free Homogeneous Dose Retest to Identify Inhibitors of RecA-Intein Splicing Activity. [Related pubchem assays (depositor defined):AID2097, AID2223, AID489010, AID492950]; assay type: functional
T3 sequence (P9WHJ3 whole entry): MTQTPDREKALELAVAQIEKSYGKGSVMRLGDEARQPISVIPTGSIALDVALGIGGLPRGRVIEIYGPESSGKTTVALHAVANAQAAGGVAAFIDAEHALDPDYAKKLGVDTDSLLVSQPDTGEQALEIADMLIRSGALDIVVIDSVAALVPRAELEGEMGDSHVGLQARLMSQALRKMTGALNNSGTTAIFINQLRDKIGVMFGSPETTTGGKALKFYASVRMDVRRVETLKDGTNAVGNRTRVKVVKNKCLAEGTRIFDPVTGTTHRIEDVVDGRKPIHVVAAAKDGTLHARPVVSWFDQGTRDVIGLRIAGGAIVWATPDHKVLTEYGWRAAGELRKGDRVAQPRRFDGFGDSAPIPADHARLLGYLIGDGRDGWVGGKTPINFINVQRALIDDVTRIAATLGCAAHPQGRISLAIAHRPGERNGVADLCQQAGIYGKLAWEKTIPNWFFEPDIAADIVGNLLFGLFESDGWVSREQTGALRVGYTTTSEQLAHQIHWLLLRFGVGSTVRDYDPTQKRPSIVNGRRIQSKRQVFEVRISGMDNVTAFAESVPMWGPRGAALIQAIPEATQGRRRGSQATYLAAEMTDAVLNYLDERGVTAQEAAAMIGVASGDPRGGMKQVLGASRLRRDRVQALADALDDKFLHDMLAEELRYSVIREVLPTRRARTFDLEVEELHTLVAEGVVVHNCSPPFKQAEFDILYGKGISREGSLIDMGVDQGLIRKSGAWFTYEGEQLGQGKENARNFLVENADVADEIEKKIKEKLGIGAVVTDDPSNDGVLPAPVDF

[10] = test system: BJ; assay: cytotoxicity toward Ras-transformed BJeLR fibroblasts, dose response, cell-based, alamar blue fluorescence, cherrypicked samples (AID 2631); assay type: functional; conditions: Homo sapiens;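 also: confirmatory dose-response assay in RAS-dependent BJ fibroblasts engineered with TERT, LT and ST, with cytotoxicity read by fluorescence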
[11] = target: T4, Replicative DNA helicase DnaB (Mycobacterium tuberculosis, UniProt P9WMR3); assay: DnaB intein splicing inhibitors, dose response, biochemical, cell-free fluorescence (AID 449749); assay type: functional
T4 sequence (P9WMR3 whole entry): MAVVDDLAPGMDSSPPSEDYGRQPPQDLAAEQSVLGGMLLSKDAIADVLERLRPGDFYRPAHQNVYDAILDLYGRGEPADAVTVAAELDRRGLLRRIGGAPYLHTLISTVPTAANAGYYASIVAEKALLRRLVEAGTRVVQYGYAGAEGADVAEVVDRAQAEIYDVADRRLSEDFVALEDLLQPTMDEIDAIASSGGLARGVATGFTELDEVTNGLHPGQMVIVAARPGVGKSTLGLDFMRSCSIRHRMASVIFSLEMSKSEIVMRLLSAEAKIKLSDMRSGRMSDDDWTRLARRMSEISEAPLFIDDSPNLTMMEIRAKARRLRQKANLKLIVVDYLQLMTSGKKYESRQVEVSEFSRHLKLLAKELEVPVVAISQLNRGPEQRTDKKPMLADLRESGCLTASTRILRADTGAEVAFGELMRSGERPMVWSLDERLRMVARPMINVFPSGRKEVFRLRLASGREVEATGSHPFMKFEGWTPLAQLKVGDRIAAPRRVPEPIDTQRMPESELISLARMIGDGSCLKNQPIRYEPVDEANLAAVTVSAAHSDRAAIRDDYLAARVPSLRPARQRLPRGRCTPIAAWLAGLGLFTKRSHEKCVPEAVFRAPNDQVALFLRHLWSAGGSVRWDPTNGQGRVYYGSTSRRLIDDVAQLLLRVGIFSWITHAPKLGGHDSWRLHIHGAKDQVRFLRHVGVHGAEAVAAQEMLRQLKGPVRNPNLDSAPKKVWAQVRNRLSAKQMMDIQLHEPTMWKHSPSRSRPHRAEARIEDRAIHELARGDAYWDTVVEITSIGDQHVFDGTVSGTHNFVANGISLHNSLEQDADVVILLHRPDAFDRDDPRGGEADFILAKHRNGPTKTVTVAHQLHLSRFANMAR

[12] = test system: BJ; assay: cytotoxicity toward BJ-TERT fibroblasts, dose response, cell-based, RAS-independent, luminescence (AID 1933); assay type: functional; conditions: Homo sapiens
[13] = non-specific cell cytotoxicity, dose response, cytotoxicity control for PAX8 inhibitor project, plate reader, dry powder samples (AID 743021); assay type: functional, cell-based
[14] = test system: BJ; assay: cells; assay type: functional, cell-based; conditions: Homo sapiens
[15] = target: T5, Microphthalmia-associated transcription factor (Homo sapiens, UniProt O75030); assay: TRPM1 promoter luciferase signal decrease, dose response, MITF inhibitor project, cell-based, SK-MEL-5, cherry-picked, set 3 (AID 493073); assay type: functional
T5 sequence (O75030 whole entry): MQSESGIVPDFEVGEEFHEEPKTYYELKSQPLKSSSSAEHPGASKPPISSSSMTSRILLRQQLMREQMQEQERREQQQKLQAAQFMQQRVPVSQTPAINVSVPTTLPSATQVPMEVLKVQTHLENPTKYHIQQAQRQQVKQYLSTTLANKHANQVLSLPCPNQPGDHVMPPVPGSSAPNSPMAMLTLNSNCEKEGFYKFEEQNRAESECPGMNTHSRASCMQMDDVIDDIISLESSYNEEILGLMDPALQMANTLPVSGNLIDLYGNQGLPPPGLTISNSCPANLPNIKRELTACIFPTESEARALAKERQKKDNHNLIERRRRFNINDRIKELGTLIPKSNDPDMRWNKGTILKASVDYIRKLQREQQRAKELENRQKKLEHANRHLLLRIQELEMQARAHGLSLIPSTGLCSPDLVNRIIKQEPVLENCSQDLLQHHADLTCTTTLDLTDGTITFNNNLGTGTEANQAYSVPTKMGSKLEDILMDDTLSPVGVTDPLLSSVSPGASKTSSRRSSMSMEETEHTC

Ephrin type-A receptor 4, sequence (Q03137 whole entry): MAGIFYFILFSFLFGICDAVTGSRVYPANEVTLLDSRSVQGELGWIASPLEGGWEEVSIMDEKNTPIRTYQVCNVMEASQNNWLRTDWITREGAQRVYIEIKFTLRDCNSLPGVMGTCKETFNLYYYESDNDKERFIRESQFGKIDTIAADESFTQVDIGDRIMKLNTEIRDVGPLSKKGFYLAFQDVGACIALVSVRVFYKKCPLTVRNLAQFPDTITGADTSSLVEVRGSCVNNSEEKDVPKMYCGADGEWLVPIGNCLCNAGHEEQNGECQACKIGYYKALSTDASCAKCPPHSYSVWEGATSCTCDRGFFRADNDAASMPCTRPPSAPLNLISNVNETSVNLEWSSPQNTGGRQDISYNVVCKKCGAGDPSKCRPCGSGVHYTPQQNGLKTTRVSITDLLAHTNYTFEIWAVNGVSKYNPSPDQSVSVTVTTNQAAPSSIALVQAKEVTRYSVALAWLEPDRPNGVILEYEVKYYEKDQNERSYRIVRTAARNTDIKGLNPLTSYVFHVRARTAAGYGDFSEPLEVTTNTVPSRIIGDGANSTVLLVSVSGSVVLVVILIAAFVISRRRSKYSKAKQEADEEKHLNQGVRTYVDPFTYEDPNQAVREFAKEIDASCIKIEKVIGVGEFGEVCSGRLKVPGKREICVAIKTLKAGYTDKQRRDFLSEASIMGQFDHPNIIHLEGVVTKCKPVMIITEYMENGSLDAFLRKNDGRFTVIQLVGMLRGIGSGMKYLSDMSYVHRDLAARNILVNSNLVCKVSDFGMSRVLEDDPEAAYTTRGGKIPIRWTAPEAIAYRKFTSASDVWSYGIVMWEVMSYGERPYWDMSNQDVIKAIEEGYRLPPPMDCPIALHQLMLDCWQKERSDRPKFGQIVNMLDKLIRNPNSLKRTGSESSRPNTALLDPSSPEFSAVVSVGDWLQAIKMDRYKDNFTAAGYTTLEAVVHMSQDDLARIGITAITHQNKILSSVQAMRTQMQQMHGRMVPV
Paired box protein Pax-8, sequence (Q06710 whole entry): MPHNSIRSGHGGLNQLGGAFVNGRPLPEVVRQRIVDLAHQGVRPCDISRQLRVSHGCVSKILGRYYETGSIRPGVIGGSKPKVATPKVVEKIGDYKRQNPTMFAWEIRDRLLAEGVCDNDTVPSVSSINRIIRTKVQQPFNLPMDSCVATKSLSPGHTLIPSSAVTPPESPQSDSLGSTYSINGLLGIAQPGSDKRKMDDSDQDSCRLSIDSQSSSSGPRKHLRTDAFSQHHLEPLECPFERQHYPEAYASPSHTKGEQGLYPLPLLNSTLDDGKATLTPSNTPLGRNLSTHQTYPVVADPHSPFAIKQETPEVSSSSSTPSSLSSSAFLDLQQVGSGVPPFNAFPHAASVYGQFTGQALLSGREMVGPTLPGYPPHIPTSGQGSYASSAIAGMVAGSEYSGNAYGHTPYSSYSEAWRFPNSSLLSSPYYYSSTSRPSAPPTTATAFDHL

| Structure (SMILES) | IC50 [1] | IC50 [2] | CC50 [3] | IC50 [4] | AC50 [5] | EC50 [6] | EC50 [7] | AC50 [8] | EC50 [9] | EC50 [10] | AC50 [11] | EC50 [12] | AC50 [13] | EC50 [14] | AC50 [15] |
| --- | --- | --- | --- | --- | --- | --- | --- | --- | --- | --- | --- | --- | --- | --- | --- |
| O=C(/C=C/c1ccc(O)c(O)c1)c1ccc(S(=O)(=O)N2CCCCCC2)cc1 | 82 µM (active) | 0.835 µM (active) | 26.3 µM (active) |  |  |  |  |  |  |  |  |  |  |  |  |
| Brc1ccc(-c2nnc(-c3cccc(Br)c3)o2)cc1 |  |  |  | > 100 µM (not active) | 0.316 µM (inconclusive) |  |  |  |  |  |  |  |  |  |  |
| COc1ccccc1N(C(=O)CCl)c1cn(C(C)=O)c2ccccc12 |  | 1.2 µM (active) |  |  |  | 3.11 µM (active) | > 150 µM (inconclusive) | 1.56 µM (active) | 0.846 µM (active) | 1.52 µM (active) | 12.8 µM (active) | 5.21 µM (inconclusive) | 3.66 µM (active) | 5.64 µM (active) | 8.82 µM (active) |
